Results as given in patent publication US20230056335A1, “TOPICAL FORMULATION CONTAINING RAPAMYCIN” (NOBELPHARMA CO., LTD., priority 2020, published 2023).

Experiments:
[1] = Solubility of sirolimus in each single solvent (visual observation); type: physicochemical; details: sirolimus:solvent 1:50 (weight ratio)
Experimental: Sirolimus was mixed into each solvent shown in Table 1 so that sirolimus:solvent was a ratio of 1:50 (weight ratio), heating and ultrasonic irradiation were performed thereon in a water bath of about 50° C., and solubility was confirmed by visual observation.

[2] = tested on: EFT-400 kit skin model; test: Penetration test for ointment into skin model; type: in vitro ADME
Experimental: Penetration of an ointment into a skin model was tested using the sirolimus ointment prepared in Example 4 as a test substance and an EFT-400 kit manufactured by MetTec Corporation as the skin model.
Skin model cells were transferred to a 6-well plate into which an EFT-400 assay medium was dispensed, and the cells were incubated overnight (for 16 to 18 hours) in a carbon dioxide incubator (37° C., 5% CO2, under a humidified condition).
About 50 mg of the test substance was applied onto the center of the cultured skin cells and evenly spread on the cells. These cells were incubated for 24 hours in a carbon dioxide incubator (37° C., 5% CO2, under a humidified condition). […]
Then, the sample solution was diluted 10-fold with the blank matrix, and 20 μL of the diluted sample solution was collected in a PP tube. 20 μL of acetonitrile, 20 μL of the internal standard solution, and 50 μL methanol were added to and mixed with the diluted sample solution, and the mixture was subjected to LC/MS/MS under the following conditions to quantify a sirolimus concentration in the measurement sample. The mass of sirolimus that transferred to the dermic layer was calculated from the obtained value of the sirolimus concentration and the mass of the dermic layer used in the preparation of the sample solution. […]

[3] = Effects of mixing amount of BHT on stability of sirolimus, HPLC quantification; type: physicochemical; details: BHT mixed at a concentration of 1% or higher; 40° C. and 50° C. for 2 weeks
Experimental: Quantification of sirolimus was performed by conducting an HPLC test under the following conditions and comparing the area of a sirolimus peak in a test substance and the area of a sirolimus peak in a sirolimus standard.
Detector: ultraviolet absorption photometer (detection wavelength: 278 nm)
Column: stainless steel tube with internal diameter of 4.6 mm and length of 250 mm filled with octadecylsilyl-silica gel for chromatography
Column temperature: constant temperature of about 40° C.
Mobile phase: acetonitrile/0.02 mol/L ammonium acetate buffer (pH 6.0)=13/7
Solutions were prepared by mixing various concentrations of BHT into the ethanol solution of sirolimus, and the solutions were stored at 40° C. and 50° C. for 2 weeks. Quantification of sirolimus was performed on samples after the storage by the same method as that in Reference Example 2 to calculate residual ratios.

Solubility in a single solvent ([1]; each solvent of Table 1): did not dissolve
Solubility ([1]; solvent 1,3 Butylene glycol, about 50° C.): Insoluble (cloudy liquid)
Solubility ([1]; solvent Diethyl sebacate, about 50° C.): Insoluble (cloudy liquid)
Solubility ([1]; solvent Diisopropyl sebacate, about 50° C.): Insoluble (cloudy liquid)
Solubility ([1]; solvent Ethylene glycol salicylate, about 50° C.): Insoluble (cloudy liquid)
Solubility ([1]; solvent Medium-chain fatty acid triglyceride, heating and ultrasonic irradiation about 50° C.): Insoluble (cloudy liquid)
Solubility ([1]; solvent Polyethylene glycol (Macrogol 400), about 50° C.): Insoluble (cloudy liquid)
Solubility ([1]; solvent Propylene glycol, about 50° C.): Insoluble (cloudy liquid)
Solubility ([1]; solvent Squalane, about 50° C.): Insoluble (cloudy liquid)
Solubility ([1]; solvent Triacetin, about 50° C.): Insoluble (cloudy liquid)
Skin penetrating properties ([2]; sirolimus ointment prepared in Example 4, EFT-400 skin model): sufficiently maintained
Stability of sirolimus [3]: stability of sirolimus was maintained
SMILES: CO[C@H]1C[C@@H]2CC[C@@H](C)[C@@](O)(O2)C(=O)C(=O)N2CCCC[C@H]2C(=O)O[C@H]([C@H](C)C[C@@H]2CC[C@@H](O)[C@H](OC)C2)CC(=O)[C@H](C)/C=C(\C)[C@@H](O)[C@@H](OC)C(=O)[C@H](C)C[C@H](C)/C=C/C=C/C=C/1C [sirolimus]
Rate of sirolimus transferred to the dermic layer ([2]; sirolimus ointment prepared in Example 4, about 50 mg applied, 24 hours incubation, LC/MS/MS): 1.402 % with respect to the indicated dose
